The record followed here is patent publication US10597390B2, “Indoles for use in influenza virus infection” (Janssen Sciences Ireland UC, priority 2014, dated 2020).

In series [1] the test system is influenza virus A/Taiwan/1/86 (H1N1). Put plainly: organism not typed. The format is cell-based. The note with it: CPE in MDCK cells, three days post-virus exposure, ATPlite. Background: Cellular ATP, detected with luciferase, serves as a proxy for viable cell number.
The nature of the next series: in vitro. The note with it: dog, TOX MDCK CC50.

Compound `Cc1cc(C(=O)N[C@H]2CCC[C@@H](Nc3nc(-c4c[nH]c5c(F)cc(F)cc45)c(C(F)(F)F)cc3F)C2)nn1C` (racemic) [Compound 177] came in with an IC50 in series [1] (MDCK, 72 h) of 38 nM. The compound further had a CC50 at 3 days in the series “in vitro” of 14700 nM.
In the same order, the values of `O=C(N[C@H]1CCC[C@@H](Nc2nc(-c3c[nH]c4c(F)cc(F)cc34)c(C(F)(F)F)cc2F)C1)c1ncn[nH]1` (racemic) [Compound 178] are 10 nM and 2600 nM.
In the same order, the values of `Cc1nc(C(=O)N[C@H]2CCC[C@@H](Nc3nc(-c4c[nH]c5c(F)cc(F)cc45)c(C(F)(F)F)cc3F)C2)c(C)o1` (racemic) [Compound 179] are 81 nM and over 25000 nM.
In turn, `O=C(N[C@H]1CCC[C@@H](Nc2nc(-c3c[nH]c4c(F)cc(F)cc34)c(C(F)(F)F)cc2F)C1)c1cnccn1` (racemic) [Compound 180] displayed an IC50 in series [1] (MDCK, 72 h) of 20 nM. The compound also gave a CC50 at 3 days in “in vitro” of over 25000 nM.
For `Cc1cc(C(=O)N[C@H]2CCC[C@@H](Nc3nc(-c4c[nH]c5c(F)cc(F)cc45)c(C(F)(F)F)cc3F)C2)on1` (racemic) [Compound 181], in that order: 11 nM and 16400 nM.
For `Cn1cnc(C(=O)N[C@H]2CCC[C@@H](Nc3nc(-c4c[nH]c5c(F)cc(Cl)cc45)c(C#N)cc3F)C2)c1` (racemic) [Compound 189], in that order: 4 nM and 7300 nM.
For `Cc1cc(F)c2[nH]cc(-c3ncc(F)c(N[C@H]4CCC[C@@H](NC(=O)c5cn(C)cn5)C4)n3)c2c1` (racemic) [Compound 190], in that order: 11 nM and 13100 nM.
With `N#Cc1cc(F)c(N[C@H]2CCC[C@@H](NC(=O)c3ccccn3)C2)nc1-c1c[nH]c2c(F)cc(F)cc12` (racemic) [Compound 208], the IC50 in series [1] (MDCK, 72 h) is 6 nM. In the series “in vitro”, this compound yielded a CC50 at 3 days of over 25000 nM.
With `Cc1cc(C(=O)N[C@@H]2CCC[C@H](Nc3nc(-c4c[nH]c5c(F)cc(F)cc45)c(C#N)cc3F)C2)nn1C` (racemic) [Compound 210], in series [1], half-maximal inhibition (IC50) was put at 12 nM. In “in vitro”, this compound registered a CC50 at 3 days of over 25000 nM.
`O=C(O)[C@H]1[C@@H]2CC[C@@H](C2)[C@@H]1Nc1nc(-c2c[nH]c3c(F)cc(F)cc23)ncc1F` (racemic) [Compound 217, (+/−)-(2-exo, 3-endo)-3-((2-(5,7-difluoro-1H-indol-3-yl)-5-fluoropyrimidin-4-yl)amino)bicyclo[2.2.1]heptane-2-carboxylic Acid]: it took 22 nM to reach half-maximal inhibition in series [1] (MDCK, 72 h) (IC50). The same compound had a CC50 at 3 days in “in vitro” of 5000 nM.
On to `CC[C@]1(C(=O)O)CCCC[C@@H]1Nc1nc(-c2c[nH]c3c(F)cc(F)cc23)ncc1F` (racemic) [Compound 252], for which the IC50 in series [1] (MDCK, 72 h) amounted to 350 nM. The compound also gave a CC50 at 3 days in “in vitro” of 8200 nM.
For `CC(=O)NCc1cc(F)c(N[C@H]2CCC[C@@H](NC(=O)c3cn(C)cn3)C2)nc1-c1c[nH]c2c(F)cc(F)cc12` (racemic) [Compound 258], in that order: 160 nM and over 25000 nM.
In series [1] (MDCK, 72 h), `O=C(N[C@@H]1CCC[C@H](Nc2nc(-c3c[nH]c4c(F)cc(C(F)(F)F)cc34)ncc2F)C1)c1ccccn1` (racemic) [Compound 263] registered an IC50 of 15 nM. In the series “in vitro”, the CC50 at 3 days came to 3900 nM.
Regarding `C[C@@H]1CC[C@H](C)N1C(=O)N[C@H]1CCC[C@@H](Nc2nc(-c3c[nH]c4c(F)cc(F)cc34)ncc2F)C1` (relative stereo) [Compound 13, N-((1R*,3S*)-3-((2-(5,7-difluoro-1H-indol-3-yl)-5-fluoropyrimidin-4-yl)-amino)cyclohexyl)-cis-2,5-dimethylpyrrolidine-1-carboxamide], in series [1] (MDCK, 72 h), the IC50 is 44 nM. Half-maximal cytotoxicity in the series “in vitro” (CC50 at 3 days) was put at 10700 nM.
For `C[C@H]1CC[C@H](C)N1C(=O)N[C@H]1CCC[C@@H](Nc2nc(-c3c[nH]c4c(F)cc(F)cc34)ncc2F)C1` (relative stereo) [Compound 14, N-((1R*3S*)-3-((2-(5,7-difluoro-1H-indol-3-yl)-5-fluoropyrimidin-4-yl)amino)cyclohexyl)-trans-2,5-dimethylpyrrolidine-1-carboxamide], in that order: 140 nM and 10400 nM.
For `O=C(NC1CCOC1)N[C@@H]1CCC[C@H](Nc2nc(-c3c[nH]c4c(F)cc(F)cc34)ncc2F)C1` (relative stereo) [Compound 15, 1-((1R*,3S*)-3-((2-(5,7-difluoro-1H-indol-3-yl)-5-fluoropyrimidin-4-yl)-amino)cyclohexyl)-3-(tetrahydrofuran-3-yl)urea], in that order: 42 nM and over 25000 nM.
For `Cn1cnc(C(=O)N[C@H]2CCC[C@@H](Nc3nc(-c4c[nH]c5c(F)cc(F)cc45)c(C(F)(F)F)cc3F)C2)c1` (relative stereo) [Compound 16, N-((1S*,3R*)-3-((6-(5,7-difluoro-1H-indol-3-yl)-3-fluoro-5-(trifluoromethyl)pyridin-2-yl)amino)cyclohexyl)-1-methyl-1H-imidazole-4-carboxamide], in that order: 22 nM and 3900 nM.
Consider `Cn1nc(C(=O)O)cc1C(=O)N[C@@H]1CCC[C@H](Nc2nc(-c3c[nH]c4c(F)cc(F)cc34)ncc2F)C1` (relative stereo) [Compound 159, 5-(((1R*,3S*)-3-((2-(5,7-difluoro-1H-indol-3-yl)-5-fluoropyrimidin-4-yl)amino)cyclohexyl)carbamoyl)-1-methyl-1H-pyrazole-3-carboxylic acid], for which the IC50 in series [1] (MDCK, 72 h) was 310 nM. Further, the CC50 at 3 days in “in vitro” was over 25000 nM.
As for `Cn1nc(NS(C)(=O)=O)cc1C(=O)N[C@@H]1CCC[C@H](Nc2nc(-c3c[nH]c4c(F)cc(F)cc34)ncc2F)C1` (relative stereo) [Compound 226, N-((1R*,3S*)-3-((2-(5,7-difluoro-1H-indol-3-yl)-5-fluoropyrimidin-4-yl)-amino)cyclohexyl)-1-methyl-3-(methylsulfonamido)-1H-pyrazole-5-carboxamide], the IC50 in series [1] (MDCK, 72 h) was 3 nM. Further, in the series “in vitro”, the CC50 at 3 days was 17500 nM.
In the same order, the values of `Cn1nc(NS(N)(=O)=O)cc1C(=O)N[C@@H]1CCC[C@H](Nc2nc(-c3c[nH]c4c(F)cc(F)cc34)ncc2F)C1` (relative stereo) [Compound 227, N-((1R*,3S*)-3-((2-(5,7-difluoro-1H-indol-3-yl)-5-fluoropyrimidin-4-yl)-amino)cyclohexyl)-1-methyl-3-(sulfamoylamino)-1H-pyrazole-5-carboxamide] are 15 nM and over 25000 nM.
For `CC(=O)Nc1cc(C(=O)N[C@@H]2CCC[C@H](Nc3nc(-c4c[nH]c5c(F)cc(F)cc45)ncc3F)C2)n(C)n1` (relative stereo) [Compound 228, 3-acetamido-N-((1R*,3S*)-3-((2-(5,7-difluoro-1H-indol-3-yl)-5-fluoropyrimidin-4-yl)amino)cyclohexyl)-1-methyl-1H-pyrazole-5-carboxamide], in that order: 9 nM and over 25000 nM.
For `Cn1nc(CO)cc1C(=O)N[C@@H]1CCC[C@H](Nc2nc(-c3c[nH]c4c(F)cc(F)cc34)ncc2F)C1` (relative stereo) [Compound 262, N-((1R*,3S*)-3-((2-(5,7-difluoro-1H-indol-3-yl)-5-fluoropyrimidin-4-yl)-amino)cyclohexyl)-3-(hydroxymethyl)-1-methyl-1H-pyrazole-5-carboxamide], in that order: 46 nM and over 25000 nM.
Take `O=C(N[C@H]1CCC[C@@H](Nc2nc(-c3c[nH]c4c(F)cc(F)cc34)ncc2F)C1)N1CCCC1` (single isomer, unassigned) [Compound 9, N-((1R*,3S*)-3-((2-(5,7-difluoro-1H-indol-3-yl)-5-fluoropyrimidin-4-yl)-amino)cyclohexyl)pyrrolidine-1-carboxamide]: in series [1] (MDCK, 72 h), the IC50 is 3 nM. Further, in “in vitro”, the CC50 at 3 days is over 25000 nM.
For `CC(C)(C)[C@H](CC(=O)O)Nc1nc(-c2c[nH]c3c(F)cc(F)cc23)c(C(F)(F)F)cc1F` (single isomer, unassigned) [Compound 17, (S*)-3-((6-(5,7-difluoro-1H-indol-3-yl)-3-fluoro-5-(trifluoromethyl)pyridin-2-yl)amino)-4,4-dimethylpentanoic acid], in that order: 37 nM and 6200 nM.
`CC(C)(C)[C@@H](CC(=O)O)Nc1nc(-c2c[nH]c3c(F)cc(F)cc23)c(C(F)(F)F)cc1F` (single isomer, unassigned) [Compound 18, (R*)-3-((6-(5,7-difluoro-1H-indol-3-yl)-3-fluoro-5-(trifluoromethyl)pyridin-2-yl)amino)-4,4-dimethylpentanoic acid] gave an IC50 in series [1] (MDCK, 72 h) of over 25000 nM. The same compound had a CC50 at 3 days in “in vitro” of 210 nM.
`CC(C)(C)C(Cc1nnn[nH]1)Nc1nc(-c2c[nH]c3c(F)cc(F)cc23)ncc1F` (centres unmarked) [Compound 19, 2-(5,7-difluoro-1H-indol-3-yl)-N-(3,3-dimethyl-1-(1H-tetrazol-5-yl)butan-2-yl)-5-fluoropyrimidin-4-amine] showed an IC50 in series [1] (MDCK, 72 h) of 160 nM. In the series “in vitro”, this compound gave a CC50 at 3 days of 3700 nM.
In turn, `Cc1cc(F)c2[nH]cc(-c3nc(NC(CC(=O)O)C(C)(C)c4ccn(C)n4)c(F)cc3C#N)c2c1` (centres unmarked) [Compound 25, 3-((5-cyano-3-fluoro-6-(7-fluoro-5-methyl-1H-indol-3-yl)pyridin-2-yl)amino)-4-methyl-4-(1-methyl-1H-pyrazol-3-yl)pentanoic acid] came in with an IC50 in series [1] (MDCK, 72 h) of 41 nM. Further, the CC50 at 3 days in the series “in vitro” worked out at 900 nM.
In the same order, the values of `Cn1cnc(C(=O)N[C@@H]2CCC[C@H](Nc3nc(-c4c[nH]c5c(F)cc(Cl)cc45)ncc3F)C2)c1` [Compound 26] are 3 nM and 7900 nM.
In the same order, the values of `O=C(O)[C@H]1C2CCC(CC2)[C@@H]1Nc1nc(-c2c[nH]c3c(F)cc(Cl)cc23)ncc1F` [Compound 30] are 3 nM and 200 nM.
In series [1] (MDCK, 72 h), `CC(C)(C)C(CC(=O)O)Nc1nc(-c2c[nH]c3c(F)cc(Cl)cc23)ncc1F` (centres unmarked) [Compound 39] came in with an IC50 of 11 nM. In the series “in vitro”, this compound came in with a CC50 at 3 days of 860 nM.
For `CC(C)(C)[C@H](CC(=O)O)Nc1nc(-c2c[nH]c3c(F)cc(Cl)cc23)ncc1F` [Compound 40], in that order: 5 nM and 400 nM.

In general, IC50 refers to the concentration that inhibits the measured activity by half. The low end stands for higher potency, the high end for lower potency. The term CC50 denotes the concentration that lowers cell viability or growth by half. Lower therefore signals greater toxicity to the cells.
